Data reported in US20070155795A1, “MUSCARINIC AGONISTS” (ACADIA Pharmaceuticals Inc., priority 2000, published 2007).

Legend:
[1] = target: T1, m1 muscarinic receptor subtype (Homo sapiens, UniProt P11229); assay: R-SAT assay, muscarinic receptor subtype m1; format: cell-based; conditions: transfected NIH-3T3 cells, 5 days; for m1 % Eff: relative to maximum response to carbachol
T1 construct: expressed in transfected cells; host or cells: NIH-3T3 (ATCC CRL 1658)
T1 sequence (P11229 1-460): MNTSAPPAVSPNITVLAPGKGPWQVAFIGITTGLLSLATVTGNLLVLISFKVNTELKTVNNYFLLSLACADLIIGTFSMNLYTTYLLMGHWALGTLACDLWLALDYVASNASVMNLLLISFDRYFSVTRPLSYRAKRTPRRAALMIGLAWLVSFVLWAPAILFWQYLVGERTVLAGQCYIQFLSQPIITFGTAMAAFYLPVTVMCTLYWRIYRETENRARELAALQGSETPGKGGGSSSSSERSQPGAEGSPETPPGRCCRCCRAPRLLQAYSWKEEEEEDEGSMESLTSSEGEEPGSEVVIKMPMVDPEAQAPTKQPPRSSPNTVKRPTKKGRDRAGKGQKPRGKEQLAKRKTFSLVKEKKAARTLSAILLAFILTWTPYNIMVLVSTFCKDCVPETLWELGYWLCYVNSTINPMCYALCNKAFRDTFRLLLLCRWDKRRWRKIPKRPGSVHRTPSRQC
Description: (§1) Transfected cells were grown in the presence of between 1 nM and 40 μM of the test compound for 5 days. On day 5, the cells were lysed using 0.5% Nonidet-P and β-galactosidase expression was quantified using the chromogenic substrate o-nitrophenyl-β-D-galactoside (ONGP).
(§2) Data were normalized relative to the maximum response of the cells to the muscarinic agonist carbachol, and the following equation was fitted to the data: • response=minimum+(maximum−minimum)/(1+(EC50/[ligand])) • Where [ligand]=ligand concentration. • % Efficacy was defined as: • (maximum−minimum)/(maximum response of cells to carbachol). • pEC50=−log (EC50). • Where data gave a bell-shaped curve, “maximum” was defined as the highest observed response.

[2] = target: T2, m2 muscarinic receptor subtype (Homo sapiens, UniProt P08172); assay: R-SAT assay, muscarinic receptor subtype m2; format: cell-based; conditions: transfected NIH-3T3 cells, 5 days, relative to maximum response to carbachol
T2 construct: expressed in transfected cells; host or cells: NIH-3T3 (ATCC CRL 1658)
T2 sequence (P08172 1-466): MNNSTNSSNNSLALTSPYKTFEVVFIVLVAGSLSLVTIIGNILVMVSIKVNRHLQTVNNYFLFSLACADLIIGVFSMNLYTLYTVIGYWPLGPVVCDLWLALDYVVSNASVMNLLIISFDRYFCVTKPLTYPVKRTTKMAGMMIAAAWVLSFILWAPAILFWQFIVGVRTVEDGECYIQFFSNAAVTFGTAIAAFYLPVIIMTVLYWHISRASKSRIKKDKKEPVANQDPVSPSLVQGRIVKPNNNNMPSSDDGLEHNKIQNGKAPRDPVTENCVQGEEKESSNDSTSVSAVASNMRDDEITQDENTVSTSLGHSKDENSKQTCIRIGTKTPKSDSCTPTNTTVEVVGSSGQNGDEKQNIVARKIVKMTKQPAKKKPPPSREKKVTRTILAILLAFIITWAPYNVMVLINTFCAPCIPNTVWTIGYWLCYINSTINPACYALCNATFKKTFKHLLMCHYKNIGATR
Description: (§3) Screening Of Test Compounds In An Assay Using Muscarinic Receptor Subtypes m1, m2, m3, m4 and m5. The m1, m2, m3, m4 and m5 muscarinic receptor subtypes were cloned substantially as described by Bonner et al., Science […] and Bonner et al., Neuron 1:403 (1988). R-SAT assays were carried out substantially as described in U.S. Pat. Nos. 5,707,798, 5,912,132, and 5,955,281, and by Braüner-Osborne & Brann, Eur. J. Pharmacol. 295:93 (1995). NIH-3T3 cells (available from the American Type Culture Collection as ATCC CRL 1658) were transfected with plasmid DNA encoding the m1, m2, m3, m4 or m5 receptors and plasmid DNA encoding β-galactosidase. Transfected cells were grown in the presence of between 1 nM and 40 μM of the test compound for 5 days. On day 5, the cells were lysed using 0.5% Nonidet-P and β-galactosidase expression was quantified using the chromogenic substrate o-nitrophenyl-β-D-galactoside (ONGP).
as §2

[3] = target: T3, m3 muscarinic receptor subtype (Homo sapiens, UniProt P20309); assay: R-SAT assay, muscarinic receptor subtype m3; format: cell-based; conditions: transfected NIH-3T3 cells, 5 days, relative to maximum response to carbachol
T3 construct: expressed in transfected cells; host or cells: NIH-3T3 (ATCC CRL 1658)
T3 sequence (P20309 whole entry): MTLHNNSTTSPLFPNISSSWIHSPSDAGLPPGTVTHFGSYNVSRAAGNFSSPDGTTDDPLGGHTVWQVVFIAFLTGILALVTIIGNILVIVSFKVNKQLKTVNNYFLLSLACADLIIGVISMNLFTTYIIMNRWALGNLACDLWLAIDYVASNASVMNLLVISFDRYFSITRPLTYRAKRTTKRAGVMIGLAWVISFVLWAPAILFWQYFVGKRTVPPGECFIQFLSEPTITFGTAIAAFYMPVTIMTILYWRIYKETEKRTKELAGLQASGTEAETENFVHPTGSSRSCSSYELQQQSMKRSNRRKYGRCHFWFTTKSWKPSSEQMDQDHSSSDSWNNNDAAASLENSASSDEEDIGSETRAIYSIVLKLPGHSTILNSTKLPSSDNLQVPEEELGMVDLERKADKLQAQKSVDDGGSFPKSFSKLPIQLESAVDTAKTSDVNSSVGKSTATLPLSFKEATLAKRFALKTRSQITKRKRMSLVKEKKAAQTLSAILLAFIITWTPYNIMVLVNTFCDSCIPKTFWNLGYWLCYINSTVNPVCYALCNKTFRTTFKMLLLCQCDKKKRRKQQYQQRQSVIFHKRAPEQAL
Description: as §3, §2

[4] = target: T4, m4 muscarinic receptor subtype (Homo sapiens, UniProt P08173); assay: R-SAT assay, muscarinic receptor subtype m4; format: cell-based; conditions: transfected NIH-3T3 cells, 5 days; for m4 % Eff: relative to maximum response to carbachol
T4 construct: expressed in transfected cells; host or cells: NIH-3T3 (ATCC CRL 1658)
T4 sequence (P08173 1-479): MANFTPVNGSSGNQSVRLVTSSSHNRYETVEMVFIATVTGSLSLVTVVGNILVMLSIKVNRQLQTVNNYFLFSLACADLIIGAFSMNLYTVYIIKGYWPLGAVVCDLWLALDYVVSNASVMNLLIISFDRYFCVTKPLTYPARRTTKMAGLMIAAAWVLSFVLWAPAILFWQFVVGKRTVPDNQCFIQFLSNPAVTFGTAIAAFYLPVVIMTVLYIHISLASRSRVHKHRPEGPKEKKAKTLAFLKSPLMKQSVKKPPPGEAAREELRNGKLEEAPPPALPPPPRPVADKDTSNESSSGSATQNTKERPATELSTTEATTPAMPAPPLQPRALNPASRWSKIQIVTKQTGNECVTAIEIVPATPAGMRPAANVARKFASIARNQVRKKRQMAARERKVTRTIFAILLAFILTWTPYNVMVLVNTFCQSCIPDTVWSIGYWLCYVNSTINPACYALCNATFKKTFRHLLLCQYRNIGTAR
Description: as §1, §2

[5] = target: T5, m5 muscarinic receptor subtype (Homo sapiens, UniProt P08912); assay: R-SAT assay, muscarinic receptor subtype m5; format: cell-based; conditions: transfected NIH-3T3 cells, 5 days, relative to maximum response to carbachol
T5 construct: expressed in transfected cells; host or cells: NIH-3T3 (ATCC CRL 1658)
T5 sequence (P08912 1-532): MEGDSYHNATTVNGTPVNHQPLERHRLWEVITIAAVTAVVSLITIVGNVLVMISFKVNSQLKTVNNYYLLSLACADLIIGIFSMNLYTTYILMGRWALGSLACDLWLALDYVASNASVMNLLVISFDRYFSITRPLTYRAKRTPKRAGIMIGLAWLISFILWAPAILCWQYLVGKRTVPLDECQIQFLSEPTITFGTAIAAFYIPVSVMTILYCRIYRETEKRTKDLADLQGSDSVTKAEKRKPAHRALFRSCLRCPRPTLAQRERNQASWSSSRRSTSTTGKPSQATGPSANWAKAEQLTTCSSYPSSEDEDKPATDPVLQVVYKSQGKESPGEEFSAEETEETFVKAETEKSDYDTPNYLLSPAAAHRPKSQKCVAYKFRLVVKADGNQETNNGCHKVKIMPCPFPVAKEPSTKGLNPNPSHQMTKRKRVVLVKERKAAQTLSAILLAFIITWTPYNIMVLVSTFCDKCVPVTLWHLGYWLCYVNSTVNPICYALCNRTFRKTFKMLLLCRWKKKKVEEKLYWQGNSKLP
Description: as §3, §2

[6] = in vivo; cited from earlier work
Glaucomatous Monkeys = assay: Intraocular pressure in glaucomatous monkeys (laser-induced unilateral ocular hypertension); format: in vivo, cynomolgus monkeys (Macacca fascicularis); conditions: conscious monkeys
Description: Effects of Compound 35AKU-21 on Intaocular Pressure in Primates. All studies were conducted in fully conscious female cynomolgus monkeys (Macacca fascicularis) weighing 3-4 kg. Unilateral ocular hypertension was produced by argon laser photocoagulation to the mid-trabecular meshwork (Sawyer & McGuigan, Invest. Ophthalmol. Vis. Sci. 29:81(1988)).
Animals were trained to allow measuring intraocular pressure (IOP) with a model 30 Classic pneumatonometer (Mentor O&O Co.). Throughout each study, monkeys sat in specially designed chairs (Primate Products, San Francisco) and fed fruits and juices as needed.
The drug was administered topically. The drug was formulated in an aqueous solution such as distilled water, saline or citrate buffer at a pH 5-7 and applied unilaterally as a 35 μL drop; the contralateral eye received an equal volume of saline (or vehicle). Two baseline measurements were made prior to administration of the drug, followed by periodic measurements up to 6 hours post drug administration.

| Molecule | m1 pEC50 [1] | m1 % Eff [1] | m2 % Eff [2] | m3 % Eff [3] | m4 % Eff [4] | m5 % Eff [5] | patients with elevated liver transaminases (hepatotoxicity) [6] | m4 pEC50 [4] | EC50 ([1]; read-out: m1 pEC50 (converted)) | EC50 ([4]; read-out: m4 pEC50 (converted)) | % IOP Change (Glaucomatous Monkeys; 1 HR after topical 35 μL drop) | % IOP Change (Glaucomatous Monkeys; 2 HR after topical 35 μL drop) | % IOP Change (Glaucomatous Monkeys; 4 HR after topical 35 μL drop) | % IOP Change (Glaucomatous Monkeys; 6 HR after topical 35 μL drop) |
| --- | --- | --- | --- | --- | --- | --- | --- | --- | --- | --- | --- | --- | --- | --- |
| CCCCC1CCN(CCCc2nc3c(C)cccc3[nH]2)CC1 [Example 32, 4-Methyl-2-(3-(4-n-butylpiperidine)-1-yl-propyl)-1H-benzoimidazole] | 6.4 | 52% | no response (No response: Efficacy <25% maximum response of carbachol. This level of activity is not considered significantly different to no response.) | no response (No response: Efficacy <25% maximum response of carbachol. This level of activity is not considered significantly different to no response.) | no response (No response: Efficacy <25% maximum response of carbachol. This level of activity is not considered significantly different to no response.) | no response (No response: Efficacy <25% maximum response of carbachol. This level of activity is not considered significantly different to no response.) |  |  |  |  |  |  |  |  |
| Nc1c2c(nc3ccccc13)CCCC2 [tacrine] |  |  |  |  |  |  | about 30% |  |  |  |  |  |  |  |
| CCCCC1CCN(CCCc2n[nH]c3ccccc23)CC1.Cl [Example 89, 3-[3-(4-Butyl-piperidine-1-yl)-propyl]1-H-indazole, HCl] | 7.3 | 85% | no response (No response: Efficacy <25% maximum response of carbachol. This level of activity is not considered significantly different to no response.) | no response (No response: Efficacy <25% maximum response of carbachol. This level of activity is not considered significantly different to no response.) | 53% | no response (No response: Efficacy <25% maximum response of carbachol. This level of activity is not considered significantly different to no response.) |  | 6.8 |  |  |  |  |  |  |
| CCCCC1CCN(CCCc2noc3ccccc23)CC1 [Example 24, 3-(3-(4-n-Butylpiperidine)-1-yl-propyl)-benzo[d]isoxazole] |  | 75% | no response (No response: Efficacy <25% maximum response of carbachol. This level of activity is not considered significantly different to no response.) | no response (No response: Efficacy <25% maximum response of carbachol. This level of activity is not considered significantly different to no response.) | 41% | no response (No response: Efficacy <25% maximum response of carbachol. This level of activity is not considered significantly different to no response.) |  |  | 0.126 µM | 0.501 µM |  |  |  |  |
| CCCCC1CCN(CCCn2ncc3ccccc32)CC1 [Example 19, 1-(3-(4-n-Butylpiperidine)-1-yl-propyl)-4H-indazole] | 7.3 | 86% | no response (No response: Efficacy <25% maximum response of carbachol. This level of activity is not considered significantly different to no response.) | no response (No response: Efficacy <25% maximum response of carbachol. This level of activity is not considered significantly different to no response.) | 70% | no response (No response: Efficacy <25% maximum response of carbachol. This level of activity is not considered significantly different to no response.) |  | 6.5 |  |  | −9.3% | −21.3% | −25.9% | −29.2% |
| 3-[3-(4-Butyl-piperidin-1-yl)-propyl]-benzo[d]isothiazole [Example 93] | 7.1 | 83% | no response (No response: Efficacy <25% maximum response of carbachol. This level of activity is not considered significantly different to no response.) | no response (No response: Efficacy <25% maximum response of carbachol. This level of activity is not considered significantly different to no response.) | 58% | no response (No response: Efficacy <25% maximum response of carbachol. This level of activity is not considered significantly different to no response.) |  | 6.4 |  |  |  |  |  |  |
| CCCCC1CCN(CCCn2nnc3ccccc32)CC1 [Example 61, 1-[3-(4-Butylpiperidin-1-yl)-propyl]-1H-benzotriazole] | 6.3 | 59% | no response (No response: Efficacy <25% maximum response of carbachol. This level of activity is not considered significantly different to no response.) | no response (No response: Efficacy <25% maximum response of carbachol. This level of activity is not considered significantly different to no response.) | 39% | no response (No response: Efficacy <25% maximum response of carbachol. This level of activity is not considered significantly different to no response.) |  | 6.0 |  |  |  |  |  |  |
